The text below walks through data of patent US20110190270A1, “METHODS OF TREATING THROMBOEMBOLIC DISORDERS” (MONASH UNIVERSITY, priority 2008, published 2011).

Experiment [1] deals with thrombi in mesenteric post-capillary venules. In words: intravital microscopy of thrombus growth and stability after vessel injury. The experiment is classed as in vivo, mice. The note with it: for effect on thrombus stability and embolization in vivo (in words): local microinjection after thrombus formation; for effect on thrombus stability and embolization in vivo (in words) / mean reduction in thrombus size: needle puncture, no lepirudin; for stability of the primary hemostatic plug (in words): mice pretreated with lepirudin 50 mg/kg i.v., local infusion into formed thrombus; for mean reduction in thrombus size: local administration into the microcirculation after thrombus formation. Here is the method:
The development and consolidation of thrombi in response to vessel injury was monitored using intravital microscopy. C57BL6 or PAR4 deficient (15 g-18 g) mice were anaesthetised using sodium pentobarbitone (60 mg/kg), and the mesentery exteriorized through a midline abdominal incision. Body temperature was maintained during the procedure using an infrared heat lamp, and exposed mesenteric vessels (50-160 μm diameter) were hydrated using warm saline. Vessel injury was achieved either through vessel puncture using a microinjection needle (20-30 μm tip diameter) connected to a micromanipulator (Eppendorf), or through application of 6% FeCl3-soaked filter paper (8 sec). Accrual of platelets to the area of injury was recorded in real-time as described for in vitro flow assays (above). […] (25 mM stock solution, 2.5 μl total injection volume), or an equivalent volume of vehicle (DMSO), were locally infused into developing thrombi via the microinjection needle (release rate 2-3 μl/min, 3 cycles). To prevent fibrin generation, in some experiments, lepirudin (50 mg/kg) was administered via intravenous injection prior to induction of injury and subsequent injection of inhibitors. Complete abolition of fibrin formation at this concentration of lepirudin was confirmed by histology using Carstair's stain. The surface area of thrombi in vivo was measured using Image J, with analysis of every 5th frame (at 1 frame/sec) over 4-5 mins. Change in surface area was expressed as fold-increase or decrease over the original surface area (=1).

For experiment [2], the system named is platelet thrombi formed from human whole blood. Briefly: in vitro thrombus consolidation under flow on Type I collagen. The experiment is classed as cell-based. The note with it: for effect of fibrin/thrombin inhibition on contraction of platelet thrombi (in words): whole blood, 1800 s-1, GPRP 280 μM in native blood, hirudin-anticoagulated, lepirudin 1600 U/ml + enoxaparine 400 U/ml. How it is done: Flow-based thrombus formation assays on a bovine fibrillar Type I collagen matrix were performed at 37° C. in the absence of fibrin. Briefly, […] (DMSO), Blebbistatin (+) (200 μM), Blebbistatin (−) (200 μM), EGTA/Mg^2+ (2 mM/1 mM), HA1077 (80 μM), H1152 (40 μM) or 2-APB (200 μM) (10 mins, 37° C.) prior to perfusion through fibrillar type I collagen-coated microcapillary tubes (2.0 mg/ml) at 1800 s^−1 for 5 mins. Thrombus formation was observed using an inverted Leica DMIRB microscope (Leica Microsystems, Wetzlar, Germany) with a 63× water objective (1.2 numeric aperture (NA)), and recorded in real-time using a Dage-MTI charge-coupled device (CCD) camera 300 ETRCX (Dage-MTI, Michigan City, Ind.).
Two-dimensional quantification of thrombus consolidation—Quantification of thrombus contraction was performed by ‘spiking’ whole blood with 3% DiIC12-labelled platelets prior to perfusion. Spiked whole blood was then perfused over collagen matrices as described above, and DIC/fluorescence images were recorded in real-time as described above, for off-line analysis. Studies examining the effect of 2-APB on consolidation were performed by perfusing untreated whole blood across microslides for 30 seconds to establish a nucleating thrombus, followed by perfusion of inhibitor treated blood. […] The distance between 2 fluorescently-labelled platelets in a given thrombus was measured in […] every 30 sec over 5 min. Results are expressed as percentage decrease in the distance between 2 platelets incorporated into a thrombus prior to 1 minute of flow, with the distance between platelets at 1 minute taken as 100%.
3D volumetric thrombus analysis—For analysis of thrombus volume, whole blood was labelled with DiIC12 (1 μM) prior to perfusion. Thrombi were formed as described above, and images captured in real-time using an inverted Leica DMIRB confocal microscope, with […] sections acquired every 30 seconds over 4-5 min. Analysis of thrombus volume was performed using Metamorph 6 software.

Experiment [3] concerns platelet-mediated fibrin clot retraction in citrated PRP. Briefly: platelet-mediated fibrin clot retraction. The class given is cell-based, human. The note with it: thrombin 1 U/ml, 2-APB 200 μM, EGTA/Mg2+ 2 mM/1 mM, H1152 40 μM, HA1077 80 μM. Here is the method: Washed platelets were prepared from acid-citrate dextrose (ACD)-anticoagulated whole blood, with the inclusion of Lepirudin (800 U/ml) in the Platelet Washing Buffer and Apyrase (0.02 U/ml) in the Tyrode's Buffer.
Platelet-mediated fibrin-dependent clot retraction was measured using citrated PRP^9,10. Results are expressed as, the percentage of serum remaining in the tube following clot removal, after subtracting the volumes obtained for c7E3 (negative control) samples.

A further experiment relates to non-muscle myosin II. Conditions: read-out: IC50, inhibitor of non-muscle myosin II; cited from earlier work.
For experiment [4], the system named is occlusive blood clot in the carotid artery. In words: carotid artery occlusion model, clot lysis and vascular reperfusion. Conditions: regimens A-H of FIGS. 8 and 9, blood flow monitored 60 minutes. The class given is in vivo, mice. How it is done:
Mice were anaesthetised and minor surgery performed to expose to the carotid artery and jugular vein. A Doppler flow probe was placed around the carotid artery to monitor blood flow through this blood vessel, and a catheter placed in the jugular vein to administer drugs. A blood clot was formed in the carotid artery of the mouse through the delivery of a small electric current (4 mA for 1.25 min^g), resulting in complete blockage of blood flow through the vessel (blood flow=0 mls/min), as measured by the flow probe. After vessel blockade was established, various combinations of t-PA, urokinase, heparin, hirudin, HA1077 and Y27632 were administered, using concentrations and regimens indicated (A-H in FIGS. 8 and 9) and examined for their efficacy to dissolve blood clots and restore blood flow. Blood flow was monitored in mice receiving each drug combination for a further 60 minutes, and blood flow measurements recorded using computer software.

The mark [5] stands for this setting: H1152 40 μM, Blebbistatin (−) 200 μM, lepirudin-anticoagulated human whole blood, 1800 s-1.
Setting [6] is: GPRP added to native whole blood, 1800 s-1.

On to `Cc1ccc2c(c1)C(=O)C1(O)CCN(c3ccccc3)C1=N2` (single isomer, unassigned) [inactive blebbistatin enantiomer], for which, in experiment [1], the “effect on thrombus stability and embolization in vivo (in words)” value is “no effect”; the “stability of the primary hemostatic plug (in words)” value was “no adverse effect”.

Turning to `NCCOB(c1ccccc1)c1ccccc1` [2-APB, 2-aminoethoxydiphenyl borate], the “reduction of thrombus contraction” value in experiment [2] (2-APB 200 μM, perfused after 30 sec of untreated blood, lepirudin-anticoagulated human whole blood, 1800 s-1) was found to be 32%. Besides, the “fibrin clot retraction (in words)” value in experiment [3] is given as “abolished clot retraction”.

Regarding `Cc1ccc2c(c1)C(=O)C1(O)CCN(c3ccccc3)C1=N2` (stereo not drawn) [Blebbistatin], the “stability of thrombi formed in vitro (in words)” value in experiment [2] (setting [5]) was “highly unstable platelet thrombi”. For the same compound, the “effect on thrombus contraction / consolidation (in words)” value in experiment [2] (HA1077 80 μM, Blebbistatin (−) 200 μM, lepirudin-anticoagulated human whole blood, 1800 s-1) is “tight packing of platelets did not occur”. Moreover, the “thrombus behaviour on cessation of administration” value in experiment [1] (after stopping local administration) is reported as “thrombi rapidly reformed”. In experiment [1], the “mean reduction in thrombus size” value turned out to be 38%. In experiment [1] (listed as active enantiomer of blebbistatin), the “stability of the primary hemostatic plug (in words)” value is given as “near complete embolization of the formed thrombus”. For the same compound, the IC50 (as a rule, the concentration that inhibits the measured activity by half) in the experiment with non-muscle myosin II is approximately 4 µM.

For `O=C(O)CN(CCOCCOCCN(CC(=O)O)CC(=O)O)CC(=O)O` [EGTA], the “reduction of the rate of thrombus contraction” value in experiment [2] (EGTA/Mg2+ 2 mM/1 mM, lepirudin-anticoagulated human whole blood, 1800 s-1, at 5 mins perfusion) is “up to 52%”. In addition, in experiment [3], the “fibrin clot retraction (in words)” value is on record as “no significant inhibitory effect”.

For the compound `Cc1cncc2cccc(S(=O)(=O)N3CCCNC[C@@H]3C)c12.Cl.Cl` [H1152, (S)-(+)-2-methyl-1-[(4-methyl-5-isoquinolinyl)sulfonyl]homopiperazin, 2HCl], the “stability of thrombi formed in vitro (in words)” value in experiment [2] (setting [5]) was “less stable thrombi”. Moreover, in experiment [2] (H1152 40 μM, lepirudin-anticoagulated human whole blood, 1800 s-1, after 5 mins perfusion), the “decrease in thrombus contraction” value came out at 88%. Also, in experiment [3], the “fibrin clot retraction (in words)” value is “neither inhibitor had any significant effect”. Moreover, in experiment [1], the “mean reduction in thrombus size” value is 34%; the “effect on thrombus stability and embolization in vivo (in words)” value is “more effective than the IP3 receptor antagonist APB”.

Take `Cl.O=S(=O)(c1cccc2cnccc12)N1CCCNCC1` [HA1077, 1-(5-isoquinolinesulphonyl)-homopiperazine HCl]: in experiment [3], the “fibrin clot retraction (in words)” value is “neither inhibitor had any significant effect”. In experiment [4], the “clot lysis and re-establishment of blood flow (in words)” value was “unable to lyse blood clots and re-establish blood flow”.

For Gly-Pro-Arg-Pro peptide [GPRP], in experiment [2] (setting [6]), the “formation of fibrin polymers” value was “inhibited the formation of individual fibrin polymers” and the platelet thrombus growth entry is on record as “no inhibitory effect”. Besides, the “effect of fibrin/thrombin inhibition on contraction of platelet thrombi (in words)” value in experiment [2] is listed as “unaltered”.

In the case of lepirudin, the “effect of fibrin/thrombin inhibition on contraction of platelet thrombi (in words)” value in experiment [2] is listed as “underwent a prominent contractile phase”. Moreover, in experiment [1] (wild type mice pretreated with lepirudin 50 mg/kg prior to vessel injury), the “thrombus stability in the absence of thrombin” value was “thrombi were more unstable”.
